According to US8470370B2, “Controlled release formulations” (Aegis Therapeutics, LLC, priority 2007, dated 2013):

How the values were obtained:
[1] = Solubility of folic acid in water and 0.1 M sodium bicarbonate; assay type: physicochemical
Procedure: FIGS. 20 and 21 show several examples of these hydrogels. A-4 is a hydrogel of 2% sucrose stearate/sucrose distearate containing 2.5 mg/ml of folic acid. […] F-4 is a similar hydrogel containing 1 mM curcumin formed from 2% sucrose stearate/sucrose distearate in 0.1M sodium bicarbonate again after heating to 45 degrees C., vortexing to distribute the curcumin and letting the hydrogel form upon cooling to room temperature.

[2] = Curcumin concentration in tetradecylmaltoside hydrogel versus solubility in water; assay type: physicochemical
Excerpt: Curcumin was also used in the preparation of hydrogels. Curcumin is a natural product isolated from the root of Curcuma longa from which the spice turmeric is obtained. It has been reported to have potent antioxidative, anti-inflammatory and antiseptic properties, but has extremely low solubility in water and poor bioavailability which limits its pharmaceutical use. By encapsulating curcumin in a hydrogel composed of 2% tetradecylmaltoside a concentration of the compound in the gel can be obtained which is about 33,000 times higher than the solubility of curcumin in water, for example, 1×10^−3 M in the hydrogel vs. 3×10^−8 M in water. The resulting gels are yellow or yellow-orange in color depending on whether sodium bicarbonate is present during the formulation of the gel (see FIG. 13). FIG. 13 is a pictorial representation showing hydrogels of curcumin. Sample E-2 is a hydrogel composed of 2% tetradecylmaltoside and 1 mM curcumin. Sample F-2 is a hydrogel composed of 2% tetradecylmaltoside, 1 mM curcumin, and 0.1 M sodium bicarbonate.

SMILES	solubility of folic acid ([1]; 0.1 M sodium bicarbonate, 2.5 mg/ml for sample B-5)	solubility of folic acid ([1]; water, 2.5 mg/ml for sample A-5)	concentration of curcumin in the hydrogel ([2]; 2% tetradecylmaltoside hydrogel)	concentration in gel relative to solubility in water ([2]; 2% tetradecylmaltoside hydrogel vs water)
Nc1nc2ncc(CNc3ccc(C(=O)N[C@@H](CCC(=O)O)C(=O)O)cc3)nc2c(=O)[nH]1 [Folic acid, folic acid]	completely dissolves	poorly soluble	–	–
COc1cc(/C=C/C(=O)CC(=O)/C=C/c2ccc(O)c(OC)c2)ccc1O [curcumin]	–	–	1000 µM	about 33,000 times
